# Key:
# Experiment in all cases: MIC, CLSI broth microdilution
# Assay type in all cases: cell-based
# [1] = tested on: A. baumannii AABA1009 (Fluoroquinolone-resistant); conditions: Table 2
# Method in brief: (§1)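 CLSI M7-A7 broth microdilution in Mueller Hinton Broth using two-fold compound serial dilutions. Inoculum was prepared from the previous day's agar colonies at a final 5×10^5 CFU/mL. Plates were incubated at 35° C for 20 hours in ambient air.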
# [2] = tested on: S. pneumoniae ASPN001 (Fluoroquinolone-susceptible, ATCC49619); conditions: Table 2
# Method in brief: as §1
# [3] = tested on: S. pneumoniae ASPN1027 (Fluoroquinolone-resistant); conditions: Table 2
# Method in brief: as §1
# [4] = tested on: A. baumannii AABA1065 (Fluoroquinolone-susceptible); conditions: Table 2
# Method in brief: as §1
# [5] = tested on: S. aureus ASAU1031 (Fluoroquinolone-resistant); conditions: Table 2
# Method in brief: as §1
# [6] = tested on: P. aeruginosa APAE001 (Fluoroquinolone-susceptible, ATCC27853); conditions: Table 2
# Method in brief: as §1
# [7] = tested on: P. aeruginosa APAE054 (Fluoroquinolone-resistant); conditions: Table 2
# Method in brief: as §1
# [8] = tested on: S. aureus ASAU001 (Fluoroquinolone-susceptible, ATCC29213); conditions: Table 2
# Method in brief: as §1
# [9] = tested on: E. coli AECO066 (Fluoroquinolone-resistant); conditions: Table 2
# Method in brief: as §1
# [10] = tested on: E. coli AECO001 (Fluoroquinolone susceptible, ATCC25922); conditions: Table 2, 35° C., 20 hours
# Method in brief: as §1
SMILES,MIC AABA 1009 [1],MIC ASPN 001 [2],MIC ASPN 1027 [3],MIC AABA 1065 [4],MIC ASAU 1031 [5],MIC APAE 001 [6],MIC APAE 054 [7],MIC ASAU 001 [8],MIC AECO 066 [9],MIC AECO 001 [10]
"O=C(O)c1cn(C2CC2)c2c3c(c(F)cc2c1=O)N1C(=O)CC[C@H]1CC=C3 [23/12, (7aS)-4-Cyclopropyl-12-fluoro-1,10-dioxo-4,7,7a,8,9,10-hexahydro-1H-pyrrolo[1′,2′:1,7]azepino[2,3-h]quino-line-2-carboxylic acid]",C (MIC's of greater than 8.0 μg/mL = C),C (MIC's of greater than 8.0 μg/mL = C),C (MIC's of greater than 8.0 μg/mL = C),C (MIC's of greater than 8.0 μg/mL = C),C (MIC's of greater than 8.0 μg/mL = C),C (MIC's of greater than 8.0 μg/mL = C),C (MIC's of greater than 8.0 μg/mL = C),B (MIC's of greater than 1.0 μg/mL to 8.0 μg/mL = B),C (MIC's of greater than 8.0 μg/mL = C),C (MIC's of greater than 8.0 μg/mL = C)
"O=C(O)c1cn(C2CC2)c2c3c(c(F)cc2c1=O)N1C(=O)CC[C@H]1CCC3 [23/14, (7aR)-4-Cyclopropyl-12-fluoro-1,10-dioxo-4,5,6,7,7a,8,9,10-octahydro-1H-pyrrolo[1′,2′:1,7]azepino[2,3-h]quinoline-2-carboxylic acid]",C (MIC's of greater than 8.0 μg/mL = C),C (MIC's of greater than 8.0 μg/mL = C),C (MIC's of greater than 8.0 μg/mL = C),C (MIC's of greater than 8.0 μg/mL = C),C (MIC's of greater than 8.0 μg/mL = C),C (MIC's of greater than 8.0 μg/mL = C),C (MIC's of greater than 8.0 μg/mL = C),C (MIC's of greater than 8.0 μg/mL = C),C (MIC's of greater than 8.0 μg/mL = C),C (MIC's of greater than 8.0 μg/mL = C)
"N[C@H]1C[C@H]2CC=Cc3c(ccc4c(=O)c(C(=O)O)cn(C5CC5)c34)N2C1 [25/14, (7aR,9S)-9-amino-4-cyclopropyl-1-oxo-4,7,7a,8,9,10-hexahydro-1H-pyrrolo[1′,2′:1,7]azepino[2,3-h]quinoline-2-carboxylic Acid]",C (MIC's of greater than 8.0 μg/mL = C),A (MIC's of 1.0 μg/mL or less = A),B (MIC's of greater than 1.0 μg/mL to 8.0 μg/mL = B),A (MIC's of 1.0 μg/mL or less = A),C (MIC's of greater than 8.0 μg/mL = C),B (MIC's of greater than 1.0 μg/mL to 8.0 μg/mL = B),C (MIC's of greater than 8.0 μg/mL = C),A (MIC's of 1.0 μg/mL or less = A),C (MIC's of greater than 8.0 μg/mL = C),A (MIC's of 1.0 μg/mL or less = A)
"N[C@@H]1CCN2c3c(F)cc4c(=O)c(C(=O)O)cn(C5CC5)c4c3C=NC[C@H]12.O=C(O)C(F)(F)F [26/16, (3aR,4R)-4-Amino-13-cyclopropyl-8-fluoro-10-oxo-3a,4,5,6,10,13-hexahydro-3H-pyrrolo[2′,1′:3,4][1,4]diazepino[5,6-h]quinoline-11-carboxylic acid trifluoroacetate]",C (MIC's of greater than 8.0 μg/mL = C),B (MIC's of greater than 1.0 μg/mL to 8.0 μg/mL = B),C (MIC's of greater than 8.0 μg/mL = C),B (MIC's of greater than 1.0 μg/mL to 8.0 μg/mL = B),C (MIC's of greater than 8.0 μg/mL = C),B (MIC's of greater than 1.0 μg/mL to 8.0 μg/mL = B),C (MIC's of greater than 8.0 μg/mL = C),B (MIC's of greater than 1.0 μg/mL to 8.0 μg/mL = B),C (MIC's of greater than 8.0 μg/mL = C),A (MIC's of 1.0 μg/mL or less = A)
"N[C@@H]1CCN2c3c(F)cc4c(=O)c(C(=O)O)cn(C5CC5)c4c3CNC[C@H]12.O=C(O)C(F)(F)F.O=C(O)C(F)(F)F [26/17, (3aR,4R)-4-Amino-13-cyclopropyl-8-fluoro-10-oxo-2,3,3a,4,5,6,10,13-octahydro-1H-pyrrolo[2′,1′:3,4][1,4]diazepino[5,6-h]quinoline-11-carboxylic acid bis(trifluoroacetate)]",C (MIC's of greater than 8.0 μg/mL = C),B (MIC's of greater than 1.0 μg/mL to 8.0 μg/mL = B),C (MIC's of greater than 8.0 μg/mL = C),B (MIC's of greater than 1.0 μg/mL to 8.0 μg/mL = B),C (MIC's of greater than 8.0 μg/mL = C),B (MIC's of greater than 1.0 μg/mL to 8.0 μg/mL = B),C (MIC's of greater than 8.0 μg/mL = C),B (MIC's of greater than 1.0 μg/mL to 8.0 μg/mL = B),C (MIC's of greater than 8.0 μg/mL = C),A (MIC's of 1.0 μg/mL or less = A)
"O=C(O)c1cn(C2CC2)c2c3c(c(F)cc2c1=O)N1CCCC1CC=C3 (stereo not shown) [27/5, 4-Cyclopropyl-12-fluoro-1-oxo-4,7,7a,8,9,10-hexahydro-1H-pyrrolo[1′,2′:1,7]azepino[2,3-h]quinoline-2-carboxylic acid]",C (MIC's of greater than 8.0 μg/mL = C),A (MIC's of 1.0 μg/mL or less = A),C (MIC's of greater than 8.0 μg/mL = C),B (MIC's of greater than 1.0 μg/mL to 8.0 μg/mL = B),B (MIC's of greater than 1.0 μg/mL to 8.0 μg/mL = B),C (MIC's of greater than 8.0 μg/mL = C),C (MIC's of greater than 8.0 μg/mL = C),A (MIC's of 1.0 μg/mL or less = A),C (MIC's of greater than 8.0 μg/mL = C),A (MIC's of 1.0 μg/mL or less = A)
"O=C(O)c1cn(C2CC2)c2c3c(c(F)cc2c1=O)N1CCCC1CCC3 (stereo not shown) [27/7, 4-Cyclopropyl-12-fluoro-1-oxo-4,5,6,7,7a,8,9,10-octahydro-1H-pyrrolo[1′,2′:1,7]azepino[2,3-h]quinoline-2-carboxylic acid]",C (MIC's of greater than 8.0 μg/mL = C),B (MIC's of greater than 1.0 μg/mL to 8.0 μg/mL = B),C (MIC's of greater than 8.0 μg/mL = C),C (MIC's of greater than 8.0 μg/mL = C),B (MIC's of greater than 1.0 μg/mL to 8.0 μg/mL = B),C (MIC's of greater than 8.0 μg/mL = C),C (MIC's of greater than 8.0 μg/mL = C),A (MIC's of 1.0 μg/mL or less = A),C (MIC's of greater than 8.0 μg/mL = C),B (MIC's of greater than 1.0 μg/mL to 8.0 μg/mL = B)

# Source: patent US20120058989A1, “ANTIBACTERIAL FLUOROQUINOLONE ANALOGS” (Achaogen, Inc., priority 2008, published 2012)
